From the supplement of paper PMC10883282

Experiments:
Test in all cases: relative viability vs DMSO control (72 h) (fraction); higher = more viable cells
MES-SA = system: MES-SA
In short: (§1)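 Serially diluted compound, 2.5 µl from source plates spanning 10 mM to 0.0002 mM, was added 24 h after sarcoma cell lines were seeded in 384-well plates at densities targeting 80–90% confluence. Plates then sat 72 h at 37 °C, 5% CO2, with 0.1% DMSO vehicle and a 5 µM positive control. Relative viability came from ATPLite as percent growth, averaged over up to triplicate wells, and was rescaled with 1 as full and 0 as none.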

SK-LMS-1 = system: SK-LMS-1
In short: as §1

SK-ES-1 = system: SK-ES-1
In short: as §1

SYO-1 = system: SYO-1
In short: as §1

SW1353 = system: SW1353
In short: as §1

RD-ES = system: RD-ES
In short: as §1

VA-ES-BJ = system: VA-ES-BJ
In short: as §1

HT1080 = system: HT1080
In short: as §1

RD = system: RD
In short: as §1

KHOS-240S = system: KHOS-240S
In short: as §1

SW982 = system: SW982
In short: as §1

G401 = system: G401
In short: as §1

Cc1ccc(NC(=O)c2ccc(CN3CCN(C)CC3)cc2)cc1Nc1nccc(-c2cccnc2)n1 [Imatinib]
Conditions	relative viability
G401, 0.00017 µM	0.963
G401, 0.00051 µM	0.988
G401, 0.00152 µM	0.958
G401, 0.00457 µM	0.938
G401, 0.01372 µM	0.956
G401, 0.04115 µM	0.945
G401, 0.1235 µM	0.951
G401, 0.3704 µM	0.946
G401, 1.111 µM	0.925
G401, 3.333 µM	0.823
G401, 10 µM	0.518
HT1080, 0.00017 µM	1.06
HT1080, 0.00051 µM	1
HT1080, 0.00152 µM	0.989
HT1080, 0.00457 µM	1.02
HT1080, 0.01372 µM	1.03
HT1080, 0.04115 µM	0.987
HT1080, 0.1235 µM	1.01
HT1080, 0.3704 µM	0.968
HT1080, 1.111 µM	0.973
HT1080, 3.333 µM	0.942
HT1080, 10 µM	0.643
KHOS-240S, 0.00017 µM	0.98
KHOS-240S, 0.00051 µM	0.977
KHOS-240S, 0.00152 µM	0.9747
KHOS-240S, 0.00457 µM	0.98
KHOS-240S, 0.01372 µM	0.97
KHOS-240S, 0.04115 µM	0.971
KHOS-240S, 0.1235 µM	0.953
KHOS-240S, 0.3704 µM	0.929
KHOS-240S, 1.111 µM	0.895
KHOS-240S, 3.333 µM	0.794
KHOS-240S, 10 µM	0.542
MES-SA, 0.00017 µM	0.966
MES-SA, 0.00051 µM	0.988
MES-SA, 0.00152 µM	0.992
MES-SA, 0.00457 µM	0.9838
MES-SA, 0.01372 µM	0.985
MES-SA, 0.04115 µM	0.9942
MES-SA, 0.1235 µM	0.997
MES-SA, 0.3704 µM	1.02
MES-SA, 1.111 µM	1.01
MES-SA, 3.333 µM	0.905
MES-SA, 10 µM	0.658
RD, 0.00017 µM	0.964
RD, 0.00051 µM	0.974
RD, 0.00152 µM	0.952
RD, 0.00457 µM	0.967
RD, 0.01372 µM	0.976
RD, 0.04115 µM	0.983
RD, 0.1235 µM	0.95
RD, 0.3704 µM	0.943
RD, 1.111 µM	1.01
RD, 3.333 µM	1
RD, 10 µM	0.596
RD-ES, 0.00017 µM	0.954
RD-ES, 0.00051 µM	0.957
RD-ES, 0.00152 µM	0.969
RD-ES, 0.00457 µM	0.952
RD-ES, 0.01372 µM	0.957
RD-ES, 0.04115 µM	0.961
RD-ES, 0.1235 µM	0.967
RD-ES, 0.3704 µM	0.962
RD-ES, 1.111 µM	0.951
RD-ES, 3.333 µM	0.923
RD-ES, 10 µM	0.61
SK-ES-1, 0.00017 µM	0.937
SK-ES-1, 0.00051 µM	0.98
SK-ES-1, 0.00152 µM	0.9529
SK-ES-1, 0.00457 µM	0.9471
SK-ES-1, 0.01372 µM	0.983
SK-ES-1, 0.04115 µM	0.9614
SK-ES-1, 0.1235 µM	0.977
SK-ES-1, 0.3704 µM	0.97
SK-ES-1, 1.111 µM	0.957
SK-ES-1, 3.333 µM	0.841
SK-ES-1, 10 µM	0.62
SK-LMS-1, 0.00017 µM	1.02
SK-LMS-1, 0.00051 µM	1.02
SK-LMS-1, 0.00152 µM	1.04
SK-LMS-1, 0.00457 µM	1.02
SK-LMS-1, 0.01372 µM	1.06
SK-LMS-1, 0.04115 µM	1.07
SK-LMS-1, 0.1235 µM	1.05
SK-LMS-1, 0.3704 µM	1.08
SK-LMS-1, 1.111 µM	1.08
SK-LMS-1, 3.333 µM	1.11
SK-LMS-1, 10 µM	0.635
SW982, 0.00017 µM	0.985
SW982, 0.00051 µM	0.972
SW982, 0.00152 µM	0.973
SW982, 0.00457 µM	0.975
SW982, 0.01372 µM	0.97
SW982, 0.04115 µM	0.98
SW982, 0.1235 µM	0.963
SW982, 0.3704 µM	0.979
SW982, 1.111 µM	0.983
SW982, 3.333 µM	0.96
SW982, 10 µM	0.531
SW1353, 0.00017 µM	1.01
SW1353, 0.00051 µM	0.988
SW1353, 0.00152 µM	0.986
SW1353, 0.00457 µM	1.04
SW1353, 0.01372 µM	1.01
SW1353, 0.04115 µM	1.02
SW1353, 0.1235 µM	0.991
SW1353, 0.3704 µM	1
SW1353, 1.111 µM	1.06
SW1353, 3.333 µM	1.1
SW1353, 10 µM	0.762
SYO-1, 0.00017 µM	0.98
SYO-1, 0.00051 µM	0.974
SYO-1, 0.00152 µM	0.965
SYO-1, 0.00457 µM	0.964
SYO-1, 0.01372 µM	0.948
SYO-1, 0.04115 µM	0.907
SYO-1, 0.1235 µM	0.804
SYO-1, 0.3704 µM	0.744
SYO-1, 1.111 µM	0.704
SYO-1, 3.333 µM	0.63
SYO-1, 10 µM	0.155
VA-ES-BJ, 0.00017 µM	1.02
VA-ES-BJ, 0.00051 µM	1.029
VA-ES-BJ, 0.00152 µM	1.04
VA-ES-BJ, 0.00457 µM	1.024
VA-ES-BJ, 0.01372 µM	1.01
VA-ES-BJ, 0.04115 µM	1.01
VA-ES-BJ, 0.1235 µM	1.01
VA-ES-BJ, 0.3704 µM	1.02
VA-ES-BJ, 1.111 µM	1.02
VA-ES-BJ, 3.333 µM	0.9831
VA-ES-BJ, 10 µM	0.807
